Where a name gives a salt, the structure may show the parent alone.
Experiments:
[1] = tested on: Rabbit Intermittent Claudication Model (injured limb of the high cholesterol chow-loaded rabbit); test: Rabbit intermittent claudication model: recovery time of tissue oxygen saturation after exercise (near infrared spectrophotometer); format: in vivo, male New Zealand White Rabbits; details: for Recovery Time of Tissue Oxygen Saturation: 3 days after operation, injured limb, high cholesterol chow-loaded rabbit; for Effect on the recovery time of the tissue oxygen saturation (in words): vs control, drug of the invention 3 mg/kg, pentoxifylline 300 mg/kg, cilostazol 100 mg/kg, sarpogrelate hydrochloride 300 mg/kg
From the text: To male New Zealand White Rabbits, there was given 1% cholesterol-containing RC4 (available from ORIENTAL KOBO Co., Ltd.) chow over 4 weeks (100 g/day/animal) to obtain a high cholesterol-loaded group (8 animals), while normal RC4 (available from ORIENTAL KOBO Co., Ltd.) chow was given to a group of such animals (normal feed-loaded group: 6 animals). The groins of these animals belonging to these two groups were incised in their supine position, under the anesthesia with ketamine and xylazine, followed by exposing the right femoral artery and then repeating, three times, the balloon injury treatment, which comprises the steps of inserting a Fogarty's balloon catheter in a length of 7 cm into the artery, expanding the balloon catheter to a diameter of 5 mm within the right iliac artery and then pulling out the catheter while the balloon catheter was still in the expanded state and finally ligating the right femoral artery. After 3 days from the operation, the both gluteal regions and the posterior of the lower limbs were dissected in the supine position of the animal under the anesthesia with ketamine and xylazine. The probe of a near infrared spectrophotometer was directly fitted to the interior of the both side gastrocnemius muscles, followed by application of electrical stimulation at 1 Hz to the sciatic nerves on both sides for 2 minutes as exercise loads.
After the application of exercise, these animals were kept quiet rest, followed by monitoring the process in which the degree of tissue oxygen saturation reduced during exercise was recovered, using an multi-wavelength-type near infrared spectrophotometer to thus obtain the time required for the recovery of the degree of tissue oxygen saturation in the both limbs. As such multi-wavelength-type near infrared spectrophotometer, there was used MCPD-2000 available from OTSUKA ELECTRONICS Co., Ltd., which had been improved in such a manner that the device could almost simultaneously detect the tissue oxygen saturation for the both side gastrocnemius muscles. In this respect, the distance between the light guide and detector of near infrared light rays was set at a level of 5 mm. A ½ recovered tissue oxygen saturation (½ StO2), which was an intermediate value of the tissue oxygen saturation observed after the application of the exercise (the minimum tissue oxygen saturation after exercise) and the tissue oxygen saturation observed after the recovery of exercise (the maximum tissue oxygen saturation after exercise) and then the recovery time was defined to be the time required for arriving at the level of ½ StO2 after the end of exercise-application.
To male New Zealand White Rabbits, there was given 1% cholesterol-containing RC4 (available from ORIENTAL KOBO Co., Ltd.) chow over 4 weeks (100 g/day/animal), followed by dividing these animals into two groups in such a manner that the total cholesterol levels in the plasma were identical to one another and then subjecting these two groups to treatments identical to those used in the foregoing model.
To these animals, there was orally administered, once a day, 1-formyl-N-(2-(4-(5H-dibenzo [a, d] cyclohepten-5-ylidene)-1-piperidinyl)) ethyl isonipecotic acid amide represented by the formula (2) after dissolving it in water in an amount of 3 mg/kg over the term extending from the day following the operation to the day on which the near infrared spectrophotometric measurement was initiated. On the other hand, distilled water was orally administered to the control group once a day. After 3 days from the operation, the recovery time of the tissue oxygen saturation after exercise was determined using a near infrared spectrophotometer.
The same procedures used in Example 1 were repeated except for using 300 mg/kg of pentoxifylline in place of the compound represented by the formula (2) to thus carry out the determination. […]

[2] = tested on: Rat Intermittent Claudication Model; test: Rat intermittent claudication model (lauric acid injection): maximum running/walking time on treadmill; format: in vivo, male SD rats; details: for Maximum Walking Time, recovery rate relative to day 1 (defined to be 100), After 1 day: after 1 day from lauric acid injection (baseline = 100); for Maximum Walking Time, recovery rate relative to day 1 (defined to be 100), After 1 day / Maximum Walking Time, recovery rate relative to day 1 (= 100), After 3 days / Maximum Walking Time, recovery rate relative to day 1 (= 100), After 7 days / Maximum Walking Time, recovery rate relative to day 1 (= 100), After 14 days / Maximum Walking Time, recovery rate relative to day 1 (= 100), After 21 days: formula (2) hydrochloride 3 mg/kg/day, pentoxifylline 60 mg/kg/day, oral; for Maximum Walking Time, recovery rate relative to day 1 (= 100), After 3 days: after 3 days from lauric acid injection, control 132; for Maximum Walking Time, recovery rate relative to day 1 (= 100), After 7 days: after 7 days from lauric acid injection, control 177; for Maximum Walking Time, recovery rate relative to day 1 (= 100), After 14 days: after 14 days from lauric acid injection, control 198; for Maximum Walking Time, recovery rate relative to day 1 (= 100), After 21 days: after 21 days from lauric acid injection, control 215
Protocol: (§1) Using an improved model of Corcico et al. (Corcico N. Cardiovasc. Drugs Ther., 1993, 7:241-251), male SD rats were made run on a rat treadmill (available from NATSUME SEISAKUSHO) at a speed of 10 m/min, followed by stepwise raising the running speed by 5 m/min every 3 minutes to thus determine the time (the maximum running time) required till the rats could not run any more and to thus evaluate the running ability of each animal. On the following day, these rats were anesthetized with pentobarbital and then 3.5 mg/ml of sodium laurate solution (available from SIGMA Company; dissolved in a 0.5% glucose aqueous solution) was injected into the right and left femoral arteries at a dose of 100 μl/leg to thus induce artificial intermittent claudication in the animals.
After 1, 3, 7, 14 and 21 days from the injection of the sodium laurate solution, the maximum running time was determined according to the method described above.
(§2) The same procedures used in Reference Example 2 were repeated using male SD rats (15 animals) to thus establish a rat intermittent claudication model. On the day following the lauric acid-injection, each animal was inspected for the maximum running time and these animals were divided into three groups so that the running abilities of these groups were almost identical to one another. To the first group (drug-administered group), there was orally administered, once a day, 3 mg/kg of hydrochloride of the compound represented by the formula (2) dissolved in distilled water over the term extending from the day following the lauric acid injection to 21st day, while 60 mg/kg of pentoxifylline (available from SIGMA Company) dissolved in distilled water was orally administered to the second group once a day as a comparative example. To the third group (control group), there was orally administered distilled water once a day. After 3, 7, 14 and 21 days from the lauric acid-injection, the maximum running time of each animal was determined to thus evaluate the recovery rate relative to the maximum walking time observed after the day following the lauric acid-injection (this was defined to be 100). In addition, the presence of any lesion on the limbs was simultaneously confirmed. The presence of any lesion on the lower limb was rated according to the following 6 evaluation criteria: 0: normal and all of the 5 toes could widely be opened; 1: limbs could look upward, but the toes could not be opened; 2: the limbs looked downward; 3: not less than 3 claws were necrosed; 4: not less than 3 toes were necrosed; and 5: not less than 3 toes were left out.

[3] = tested on: Rat Intermittent Claudication Model; test: Rat intermittent claudication model (lauric acid injection): score for lower limb lesion; format: in vivo, male SD rats; details: for Score for Lower Limb Lesion, After 1 day / Score for Lower Limb Lesion, After 3 days / Score for Lower Limb Lesion, After 7 days / Score for Lower Limb Lesion, After 14 days / Score for Lower Limb Lesion, After 21 days: score 0-5, formula (2) hydrochloride 3 mg/kg/day, pentoxifylline 60 mg/kg/day, oral; for Score for Lower Limb Lesion, After 1 day: after 1 day from lauric acid injection (baseline), control 4.0; for Score for Lower Limb Lesion, After 3 days / Score for Lower Limb Lesion, After 7 days / Score for Lower Limb Lesion, After 14 days: control 3.8; for Score for Lower Limb Lesion, After 21 days: control 3.4
Protocol: as §1, §2

O=CN1CCC(C(=O)NCCN2CCC(=C3c4ccccc4C=Cc4ccccc43)CC2)CC1 [Compound of Formula (2), 1-formyl-N-(2-(4-(5H-dibenzo[a,d]cyclohepten-5-ylidene)-1-piperidinyl))-ethyl-isonipecotic acid amide]
Recovery Time of Tissue Oxygen Saturation ([1]; 3 mg/kg orally once a day, control 3.8 ± 0.46): 2.0 ± 0.40 min
Maximum Walking Time, recovery rate relative to day 1 (defined to be 100), After 1 day [2]: 100
Maximum Walking Time, recovery rate relative to day 1 (= 100), After 3 days [2]: 189
Maximum Walking Time, recovery rate relative to day 1 (= 100), After 7 days [2]: 256
Maximum Walking Time, recovery rate relative to day 1 (= 100), After 14 days [2]: 252
Maximum Walking Time, recovery rate relative to day 1 (= 100), After 21 days [2]: 317
Score for Lower Limb Lesion, After 1 day [3]: 4.0
Score for Lower Limb Lesion, After 3 days [3]: 3.2
Score for Lower Limb Lesion, After 7 days [3]: 2.2
Score for Lower Limb Lesion, After 14 days [3]: 1.7
Score for Lower Limb Lesion, After 21 days [3]: 1.5

O=C1CCc2cc(OCCCCc3nnnn3C3CCCCC3)ccc2N1 [Cilostazol, cilostazol]
Recovery Time of Tissue Oxygen Saturation ([1]; 100 mg/kg orally once a day, control 2.8 ± 0.97): 3.5 ± 0.52 min
Effect on the recovery time of the tissue oxygen saturation (in words) [1]: does not show any substantial reduction of the recovery time

CC(=O)CCCCn1c(=O)c2c(ncn2C)n(C)c1=O [Pentoxifylline, pentoxifylline]
Recovery Time of Tissue Oxygen Saturation ([1]; 300 mg/kg orally once a day, control 3.8 ± 1.28): 7.1 ± 1.65 min
Effect on the recovery time of the tissue oxygen saturation (in words) [1]: did not show any reduction in the recovery time
Maximum Walking Time, recovery rate relative to day 1 (defined to be 100), After 1 day [2]: 100
Maximum Walking Time, recovery rate relative to day 1 (= 100), After 3 days [2]: 178
Maximum Walking Time, recovery rate relative to day 1 (= 100), After 7 days [2]: 189
Maximum Walking Time, recovery rate relative to day 1 (= 100), After 14 days [2]: 211
Maximum Walking Time, recovery rate relative to day 1 (= 100), After 21 days [2]: 249
Effect on the maximum walking time (in words) ([2]; vs control group, formula (2) hydrochloride 3 mg/kg (after 7 days), pentoxifylline 60 mg/kg): had a tendency of increasing the maximum walking time
Score for Lower Limb Lesion, After 1 day [3]: 4.0
Score for Lower Limb Lesion, After 3 days [3]: 3.7
Score for Lower Limb Lesion, After 7 days [3]: 3.7
Score for Lower Limb Lesion, After 14 days [3]: 3.3
Score for Lower Limb Lesion, After 21 days [3]: 2.5
Effect on the development of lesions of the lower limbs (in words) ([3]; vs control group, formula (2) hydrochloride 3 mg/kg, pentoxifylline 60 mg/kg): the effect was still insufficient

COc1cccc(CCc2ccccc2OCC(CN(C)C)OC(=O)CCC(=O)O)c1 (centres unmarked) [Sarpogrelate · HCl, sarpogrelate hydrochloride]
Recovery Time of Tissue Oxygen Saturation ([1]; 300 mg/kg (table) orally once a day, control 3.9 ± 1.08): 3.4 ± 1.33 min
Effect on the recovery time of the tissue oxygen saturation (in words) [1]: did not show any reduction of the recovery time
